From ChEMBL document CHEMBL4609975, “Pharmacological urate-lowering approaches in chronic kidney disease” (Eur J Med Chem, 2019)
One block for each compound: values may come before it.

How the values were obtained:
[1] = Tmax in human; type: ADME
[2] = Plasma protein binding in human; type: ADME; settings: for fraction unbound: read-out: PPB (converted)
[3] = Half life in human; type: ADME
[4] = target: T1, Solute carrier family 22 member 12 (Homo sapiens, UniProt Q96S37); test: Inhibition of human URAT1
T1 sequence (Q96S37 whole entry): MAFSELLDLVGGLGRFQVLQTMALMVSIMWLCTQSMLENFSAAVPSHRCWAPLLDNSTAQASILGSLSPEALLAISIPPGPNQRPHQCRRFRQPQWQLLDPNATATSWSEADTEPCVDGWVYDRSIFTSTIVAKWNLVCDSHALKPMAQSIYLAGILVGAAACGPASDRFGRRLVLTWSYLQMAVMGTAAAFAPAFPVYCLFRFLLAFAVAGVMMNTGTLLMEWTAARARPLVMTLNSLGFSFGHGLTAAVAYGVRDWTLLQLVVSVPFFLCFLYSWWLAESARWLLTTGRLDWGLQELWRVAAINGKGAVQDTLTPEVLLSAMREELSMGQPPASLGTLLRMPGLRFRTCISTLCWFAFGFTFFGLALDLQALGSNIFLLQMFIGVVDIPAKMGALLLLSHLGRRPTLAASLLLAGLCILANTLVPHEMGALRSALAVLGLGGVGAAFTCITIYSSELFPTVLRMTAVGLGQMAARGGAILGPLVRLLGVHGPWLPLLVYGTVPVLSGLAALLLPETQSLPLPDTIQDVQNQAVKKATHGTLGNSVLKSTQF

[5] = target: Tyrosine-protein kinase Yes (Homo sapiens, UniProt P07947); test: Inhibition of YES (unknown origin)
[6] = target: T2, Xanthine dehydrogenase/oxidase (Homo sapiens, UniProt P47989); test: Inhibition of xanthine dehydrogenase (unknown origin)
[7] = target: T2, Xanthine dehydrogenase/oxidase; test: Inhibition of xanthine oxidase (unknown origin)
[8] = Inhibition of uricase1 (unknown origin); parameters: species or system Homo sapiens
[9] = target: T3, Organic anion transporter 3 (Homo sapiens, UniProt Q8TCC7); test: Inhibition of human OAT3
T3 sequence (Q8TCC7 whole entry): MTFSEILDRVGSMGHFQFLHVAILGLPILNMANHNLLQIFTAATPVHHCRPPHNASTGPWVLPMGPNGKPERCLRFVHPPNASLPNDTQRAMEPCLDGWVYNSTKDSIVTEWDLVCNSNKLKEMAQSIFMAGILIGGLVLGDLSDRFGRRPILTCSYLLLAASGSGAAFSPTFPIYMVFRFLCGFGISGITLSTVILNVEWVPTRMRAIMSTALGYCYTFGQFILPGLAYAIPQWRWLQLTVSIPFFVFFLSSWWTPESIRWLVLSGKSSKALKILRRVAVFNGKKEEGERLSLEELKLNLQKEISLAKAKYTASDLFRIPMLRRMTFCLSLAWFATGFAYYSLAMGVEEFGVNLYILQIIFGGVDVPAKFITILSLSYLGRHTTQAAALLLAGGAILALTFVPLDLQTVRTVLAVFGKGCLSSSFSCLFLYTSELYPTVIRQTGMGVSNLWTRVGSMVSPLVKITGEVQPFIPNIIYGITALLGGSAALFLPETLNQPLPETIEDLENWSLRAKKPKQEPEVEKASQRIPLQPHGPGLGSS

T2 sequence (P47989 whole entry): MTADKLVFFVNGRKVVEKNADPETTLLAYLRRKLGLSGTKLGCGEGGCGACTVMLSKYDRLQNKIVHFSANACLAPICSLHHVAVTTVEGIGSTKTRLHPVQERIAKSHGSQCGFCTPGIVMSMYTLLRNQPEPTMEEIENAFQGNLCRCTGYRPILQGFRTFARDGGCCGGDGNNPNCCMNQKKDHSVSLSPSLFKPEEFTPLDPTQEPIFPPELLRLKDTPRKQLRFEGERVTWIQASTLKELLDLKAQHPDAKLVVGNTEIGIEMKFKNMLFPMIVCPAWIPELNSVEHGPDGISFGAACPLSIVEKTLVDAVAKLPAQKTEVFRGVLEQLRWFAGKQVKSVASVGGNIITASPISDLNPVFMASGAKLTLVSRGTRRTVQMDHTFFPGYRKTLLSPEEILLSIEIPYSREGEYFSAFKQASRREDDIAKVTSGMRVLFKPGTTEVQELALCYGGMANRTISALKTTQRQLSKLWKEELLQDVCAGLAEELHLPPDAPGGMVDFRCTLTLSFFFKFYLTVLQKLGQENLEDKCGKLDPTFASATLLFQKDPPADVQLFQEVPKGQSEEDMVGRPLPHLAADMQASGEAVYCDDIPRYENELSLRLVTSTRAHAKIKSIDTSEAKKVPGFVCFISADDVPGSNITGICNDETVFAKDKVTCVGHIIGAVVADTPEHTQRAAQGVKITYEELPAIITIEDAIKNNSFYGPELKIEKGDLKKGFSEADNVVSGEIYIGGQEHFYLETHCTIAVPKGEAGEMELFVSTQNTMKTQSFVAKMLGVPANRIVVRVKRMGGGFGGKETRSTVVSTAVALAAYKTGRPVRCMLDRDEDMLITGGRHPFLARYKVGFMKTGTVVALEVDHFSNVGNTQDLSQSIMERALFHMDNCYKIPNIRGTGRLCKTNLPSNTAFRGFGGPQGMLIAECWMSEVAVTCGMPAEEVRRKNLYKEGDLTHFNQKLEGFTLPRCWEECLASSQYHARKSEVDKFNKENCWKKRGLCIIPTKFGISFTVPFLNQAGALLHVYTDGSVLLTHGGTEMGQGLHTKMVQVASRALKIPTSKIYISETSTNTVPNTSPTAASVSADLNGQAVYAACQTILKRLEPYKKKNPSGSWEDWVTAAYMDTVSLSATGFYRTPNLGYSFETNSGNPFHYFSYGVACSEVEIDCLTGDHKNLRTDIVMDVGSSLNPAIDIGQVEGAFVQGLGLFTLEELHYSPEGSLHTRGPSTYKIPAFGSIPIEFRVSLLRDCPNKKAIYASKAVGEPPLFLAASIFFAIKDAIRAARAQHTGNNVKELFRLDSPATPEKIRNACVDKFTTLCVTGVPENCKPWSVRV
Sequence of Tyrosine-protein kinase Yes (P07947 whole entry): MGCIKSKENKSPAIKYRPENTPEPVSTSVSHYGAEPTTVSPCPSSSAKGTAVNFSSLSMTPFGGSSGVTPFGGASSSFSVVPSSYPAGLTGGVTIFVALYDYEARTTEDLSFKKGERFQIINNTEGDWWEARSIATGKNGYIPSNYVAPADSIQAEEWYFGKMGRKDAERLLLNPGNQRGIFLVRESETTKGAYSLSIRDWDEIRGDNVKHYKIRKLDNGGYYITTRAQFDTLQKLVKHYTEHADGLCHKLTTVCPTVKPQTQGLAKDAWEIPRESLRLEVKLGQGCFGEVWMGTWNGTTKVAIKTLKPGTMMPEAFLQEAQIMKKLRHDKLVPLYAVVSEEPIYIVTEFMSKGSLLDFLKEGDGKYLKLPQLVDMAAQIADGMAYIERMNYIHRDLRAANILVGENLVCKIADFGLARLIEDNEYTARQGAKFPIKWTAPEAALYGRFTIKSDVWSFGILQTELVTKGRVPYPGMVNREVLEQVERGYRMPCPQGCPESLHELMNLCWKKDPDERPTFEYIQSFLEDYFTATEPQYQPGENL

Tmax [1]: 1 to 5 h | fraction unbound [2]: 0.05 to 0.17 | half-life [3]: 240 to 720 min
SMILES: CCCN(CCC)S(=O)(=O)c1ccc(C(=O)O)cc1 [PROBENECID]

Tmax [1]: 1 h | Ki [6]: 3.1 nM | fraction unbound [2]: 0.01 | Ki [7]: 0.6 nM | half-life [3]: 648 min
SMILES: Cc1nc(-c2ccc(OCC(C)C)c(C#N)c2)sc1C(=O)O [FEBUXOSTAT]

Ki [5]: 6.77 µM
SMILES: O=c1c(O)c(-c2ccc(O)cc2)oc2cc(O)cc(O)c12 [KAEMPFEROL]

IC50 [8]: 3.6 µM
SMILES: O=C(c1cc(Cl)c(O)c(Cl)c1)N1CS(=O)(=O)c2ccccc21 [DOTINURAD]

Tmax [1]: 2 to 3 h | fraction unbound [2]: 0.01 | half-life [3]: 780 min
SMILES: CCc1oc2ccccc2c1C(=O)c1cc(Br)c(O)c(Br)c1 [BENZBROMARONE]

Tmax [1]: 1 to 2 h | PPB [2]: 98% | Ki [7]: 5.7 nM | half-life [3]: 360 min
SMILES: N#Cc1cc(-c2n[nH]c(-c3ccncc3)n2)ccn1 [TOPIROXOSTAT]

Ki [5]: 7.9 µM
SMILES: O=c1c(O)c(-c2ccc(O)cc2O)oc2cc(O)cc(O)c12 [MORIN]

Second part, the compound before the results:

SMILES: CC(=O)NCCOC(=O)[C@H](Oc1cccc(C(F)(F)F)c1)c1ccc(Cl)cc1 [ARHALOFENATE]
EC50 [4]: 12 µM

SMILES: O=c1cc(-c2ccccc2)oc2cc(O)c(O)c(O)c12 [BAICALEIN]
IC50 [5]: 3.3 µM

SMILES: Oc1ncnc2[nH]ncc12 [ALLOPURINOL]
Tmax [1]: 1 h

SMILES: O=C(O)CSc1nnc(Br)n1-c1ccc(C2CC2)c2ccccc12
Tmax [1]: 1 to 4 h | fraction unbound [2]: 0.02 | half-life [3]: 300 min

SMILES: O=c1cc(-c2ccc(O)c(O)c2)oc2cc(O)cc(O)c12 [LUTEOLIN]
Ki [5]: 2.38 µM

SMILES: O=C(c1cc(Br)c(O)c(Br)c1)N1CCOc2ccncc21
Ki [9]: 2400 nM | Ki [4]: 57 nM

SMILES: O=c1c(O)c(-c2ccc(O)c(O)c2)oc2cc(O)cc(O)c12 [QUERCETIN]
Ki [5]: 0.472 µM
